The nature of the series: Henry solubility constant Hcp at 298.15 K (mol/(m3 Pa)). To be noted: reference: Li and Carr (1993).
With `ClC(Cl)C(Cl)Cl` [1,1,2,2-tetrachloroethane], the “Henry solubility constant Hcp” value came to 0.029.
Regarding `Cc1ccccc1C` [1,2-dimethylbenzene], the “Henry solubility constant Hcp” value stood at 0.0019.
Turning to `Cc1cc(C)cc(C)c1` [1,3,5-trimethylbenzene], the “Henry solubility constant Hcp” value worked out at 0.0013.
In the case of `Cc1cccc(C)c1` [1,3-dimethylbenzene] it was 0.0013; in that of `Cc1ccc(C)cc1` [1,4-dimethylbenzene], 0.0013.
In the case of `CCCCCCO` [1-hexanol] it was 0.64; in that of `CCCCCO` [1-pentanol], 0.84; in that of `CCCO` [1-propanol], 1.4.
As for `CC(C)C#N` [2-methylpropanenitrile], the figure is 0.094.
Take `CCCCCCCC(C)=O` [2-nonanone]: the “Henry solubility constant Hcp” value was 0.041.
As for `Cc1cccc([N+](=O)[O-])c1` [3-nitrotoluene], the figure is 0.28; as for `CC(C)c1ccccc1` [(2-propyl)-benzene], 0.00091.
In the case of `ClCc1ccccc1` [(chloromethyl)-benzene] it was 0.012.
In the case of `c1ccccc1` [benzene] it was 0.0017; in that of `Brc1ccccc1` [bromobenzene], 0.0044; in that of `CCCCc1ccccc1` [butylbenzene], 0.00071.
Take `Clc1ccccc1` [chlorobenzene]: the “Henry solubility constant Hcp” value was found to be 0.0025.
On to `CC(C)OC(C)C` [diisopropyl ether], for which the “Henry solubility constant Hcp” value was found to be 0.0042.
In the case of `CCCOCCC` [dipropyl ether] it was 0.003; in that of `CC#N` [ethanenitrile], 0.46; in that of `CCO` [ethanol], 1.9.
As for `CCOc1ccccc1` [ethoxybenzene], the figure is 0.017; as for `CCc1ccccc1` [ethylbenzene], 0.0013.
`Fc1ccccc1` [fluorobenzene]: the “Henry solubility constant Hcp” value came out at 0.0011.
`Ic1ccccc1` [iodobenzene]: the “Henry solubility constant Hcp” value worked out at 0.0076.
In the case of `COc1ccccc1` [methoxybenzene] it was 0.032; in that of `Cc1ccccc1` [methylbenzene], 0.0016; in that of `CCCCCCCC=O` [octanal], 0.021.
In the case of `CCCCC#N` [pentanenitrile] it was 0.14; in that of `CCCc1ccccc1` [propylbenzene], 0.00093; in that of `ClC(Cl)(Cl)Cl` [tetrachloromethane], 0.00023.

The record behind these values is Sander's compilation of Henry's law constants (doi:10.1021/ac00058a023).
